Measurements reported in patent publication US20050239760A1, “Angiostatic agents and methods and compositions for controlling ocular hypertension” (Alcon, Inc., priority 2004, published 2005).

Tested on: choroidal neovascularization (CNV)
Assay: Laser-induced choroidal neovascularization (CNV) in mice, rupture of Bruch's membrane
Format: in vivo, C57BL/J mice
Conditions: single 5 μl intravitreal injection immediately after laser, day 14 post-laser
Excerpt: Choroidal neovascularization (CNV) was induced in C57BL/J mice by rupturing Bruch's membrane via focal laser photocoagulation (FIG. 3). (Tobe T, et al., AM. J. PATHOL., 153:1641-1646 (1998)). Three to four retinal burns were placed in randomly assigned eye using the Alcon 532 nm EyeLite laser (75 μm spot size, 0.1 seconds duration, 120 mW) with a slit lamp delivery system. The laser bums were used to generate a rupture in Bruch's membrane, which was indicated ophthalmoscopically by the formation of a bubble under the retina. Only mice with laser burns that produced three bubbles per eye were included in the study. Burns were typically placed at the 3, 6, 9 or 12 o'clock positions in the posterior pole of the retina, avoiding the branch retinal arteries and veins.
Each mouse was randomly assigned into one of the following treatment groups after laser: noninjected controls, sham-injected controls, vehicle-injected mice, or one of three anecortave acetate-injected groups. Control mice received laser photocoagulation in both eyes, where one eye received a sham injection, i.e. a pars plana needle puncture. For intravitreal-injected animals, one laser-treated eye received a 5 μl intravitreal injection of 0%, 0.1%, 1%, or 10% anecortave acetate. The intravitreal injection was performed immediately after laser photocoagulation.
Fourteen days post-laser, all mice were euthanized and systemically perfused with fluorescein-labeled dextran. Eyes were then harvested and prepared as choroidal flat mounts, and the 2-dimensional CNV area was quantified with computerized digital analysis. (Mori K., et al., AM. J. PATHOL. 159:313-320 (2001)). The median CNV area/burn per mouse per treatment was used for statistical analysis; P≦0.05 was considered significant.

CC(=O)OCC(=O)[C@@]1(O)CC[C@H]2[C@@H]3CCC4=CC(=O)CC[C@]4(C)C3=CC[C@@]21C [anecortave acetate, 4,9(11)-pregnadien-17α,21-diol-3,20-dione-21-acetate]
CNV versus vehicle-injected controls (0.1% anecortave acetate): No difference
CNV versus vehicle-injected controls (1% anecortave acetate): No difference
inhibition of CNV (median CNV area/burn) as compared to vehicle-injected eyes (10% anecortave acetate, Mann-Whitney P<0.001): 57.8%
